From ChEMBL document CHEMBL1201862, “PubChem BioAssay data set” (2004)
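Where inhibition never reached the appropriate level, the endpoint shown equals the highest concentration tested. Otherwise, values were interpolated linearly from a five-concentration, 48-hour dose response in 96-well plates. GI50 is the concentration that inhibits growth by half.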 Active and inactive are the calls of the source. Rule as the data show it: active = GI50 up to about 1.1 µM and inactive = higher.

Tests used:
Test in all cases: growth of human tumour cells (NCI), 48 h
ACHN = system: ACHN
BT-549 = system: BT-549
DMS-273 = system: DMS-273
DU-145 = system: DU-145
HCC 2998 = system: HCC 2998
HCT-116 = system: HCT-116
HCT-15 = system: HCT-15
HL-60 = system: HL-60
M14 = system: M14
MOLT-4 = system: MOLT-4
Malme-3M = system: Malme-3M
NCI-H460 = system: NCI-H460
OVCAR-8 = system: OVCAR-8
PC-3 = system: PC-3
RXF 393 = system: RXF 393
SK-OV-3 = system: SK-OV-3
SW-620 = system: SW-620
T47D = system: T47D
UACC-62 = system: UACC-62
UO-31 = system: UO-31

Structure (SMILES) | GI50 (ACHN) | GI50 (BT-549) | GI50 (DMS-273) | GI50 (DU-145) | GI50 (HCC 2998) | GI50 (HCT-116) | GI50 (HCT-15) | GI50 (HL-60) | GI50 (M14) | GI50 (MOLT-4) | GI50 (Malme-3M) | GI50 (NCI-H460) | GI50 (OVCAR-8) | GI50 (PC-3) | GI50 (RXF 393) | GI50 (SK-OV-3) | GI50 (SW-620) | GI50 (T47D) | GI50 (UACC-62) | GI50 (UO-31)
CCc1ccccc1N1CCN(C(=O)c2cc(OC)c(OC)c(OC)c2)CC1 | < 0.0137 µM (active) | 0.0361 µM (active) | 0.0277 µM (active) | 0.0207 µM (active) | 0.0585 µM (active) | 0.042 µM (active) | 0.0259 µM | 0.0233 µM (active) | 0.0135 µM (active) | 0.148 µM (active) | 0.0232 µM (active) | 0.0307 µM (active) | 0.0914 µM (active) | < 0.0144 µM (active) | 0.0105 µM (active) | 0.0375 µM (active) | 0.0208 µM (active) | 17.3 µM (inactive) | 0.0156 µM (active) | 0.0685 µM (active)
C=CCNc1nc2c(s1)C(=O)c1ccccc1C2=O | 7.62 µM (inactive) |  | 9.82 µM (inactive) | 18.6 µM (inactive) | 20.7 µM (inactive) | 3.81 µM (inactive) | 8.51 µM | 1.61 µM (inactive) | 5.12 µM (inactive) | 2.26 µM (inactive) | 12.5 µM (inactive) | 12 µM (inactive) | 3.73 µM (inactive) | 12.6 µM (inactive) | 18.6 µM (inactive) | 17.9 µM (inactive) | 12.9 µM (inactive) | 14.4 µM (inactive) | 3.9 µM (inactive) | 13.3 µM (inactive)
C=C(C)C1CC=C(C)C(O)([C@@]2(O)C[C@H](C(=C)C)CC=C2C)C1 (stereo not given in full) | 20.3 µM (inactive) |  | 16.2 µM (inactive) |  | 16.4 µM (inactive) | 17.6 µM (inactive) | > 10 µM | 23.1 µM (inactive) | 16.4 µM (inactive) | 17.8 µM (inactive) | 22.8 µM (inactive) | 18 µM (inactive) | 17.2 µM (inactive) |  | 13.7 µM (inactive) | 27.2 µM (inactive) | 26.7 µM (inactive) |  | 19.8 µM (inactive) | 28.4 µM (inactive)
CN1N=C2c3ccccc3OC(c3ccccc3)[C@H]2C1c1ccccc1 (stereo not given in full) | > 100 µM (inactive) |  | > 100 µM (inactive) |  | 56.1 µM (inactive) | 29.7 µM (inactive) | 75 µM | 37.3 µM (inactive) | > 100 µM (inactive) | 35.2 µM (inactive) | 22.2 µM (inactive) | 97.1 µM (inactive) | > 100 µM (inactive) |  | 28.2 µM (inactive) | > 100 µM (inactive) | > 100 µM (inactive) |  | > 100 µM (inactive) | 61.1 µM (inactive)
O=c1ncccn1[C@@H]1O[C@H](CO)[C@H](O)C1O (stereo not given in full) | > 100 µM (inactive) |  | > 77.1 µM (inactive) |  | 40.9 µM (inactive) | > 70.8 µM (inactive) | > 93.1 µM | 47.3 µM (inactive) | > 100 µM (inactive) | 61.7 µM (inactive) | > 100 µM (inactive) | 47.9 µM (inactive) | > 74.5 µM (inactive) |  | 80.9 µM (inactive) | > 100 µM (inactive) | > 100 µM (inactive) |  | > 99.5 µM (inactive) | > 100 µM (inactive)
N#CCC(=O)NC1C2CC3CC(C2)CC1C3 (stereo not given) | 19.1 µM (inactive) |  | 21.6 µM (inactive) |  | 18 µM (inactive) | 15.2 µM (inactive) | 17.2 µM | 22.8 µM (inactive) | 19.9 µM (inactive) | 34 µM (inactive) | 20.3 µM (inactive) | 16.7 µM (inactive) | 17.5 µM (inactive) |  | 15.8 µM (inactive) | 37.4 µM (inactive) | 25.4 µM (inactive) |  | 15.1 µM (inactive) | 49 µM (inactive)
NNC(=O)/C(=C/c1ccc(Cl)cc1Cl)NC(=O)c1ccccc1 | > 100 µM (inactive) |  | > 100 µM (inactive) |  | > 100 µM (inactive) | > 100 µM (inactive) | > 100 µM | > 100 µM (inactive) | > 100 µM (inactive) | 60.5 µM (inactive) | > 100 µM (inactive) | > 100 µM (inactive) | > 100 µM (inactive) |  | > 100 µM (inactive) | > 100 µM (inactive) | > 100 µM (inactive) |  | 41 µM (inactive) | > 100 µM (inactive)
CCCCCN(CCCCC)C(=O)[C@@H](CCC(=O)O)NC(=O)c1cc2ccccc2[nH]1 | 30.5 µM (inactive) |  | 32.1 µM (inactive) |  | 34 µM (inactive) | 17.9 µM (inactive) | 37.7 µM | 24.1 µM (inactive) | 23.2 µM (inactive) | 21.5 µM (inactive) | 35.4 µM (inactive) | 34.4 µM (inactive) | 52.8 µM (inactive) |  | 1.99 µM (inactive) | 65.2 µM (inactive) | 63.1 µM (inactive) |  | 20.7 µM (inactive) | 21.4 µM (inactive)
